Patent publication US8119695B2, “Compounds and methods for treating breast cancer and other diseases” (City of Hope, priority 2003, dated 2012)
Values joined by “and” are separate entries in the source; they are usually repeats but may differ in a detail not shown here. Identical values can stand only once. Like-named read-outs stand apart in the source and are kept apart here.

How the values were obtained:
Format in all cases: cell-based
ERRβ (GAL-L-ERRb) = molecular target: T1, ERRβ (GAL-L-ERRb) (Homo sapiens, UniProt O95718); test: MH100x4 luciferase reporter with GAL-L-ERRb; parameters: Reporter Activity: unit not given here; conditions: for inhibition of the activity of ERRβ: result in words
T1 construct: expressed in transfected cells
T1 sequence (O95718 208-432 limits assumed): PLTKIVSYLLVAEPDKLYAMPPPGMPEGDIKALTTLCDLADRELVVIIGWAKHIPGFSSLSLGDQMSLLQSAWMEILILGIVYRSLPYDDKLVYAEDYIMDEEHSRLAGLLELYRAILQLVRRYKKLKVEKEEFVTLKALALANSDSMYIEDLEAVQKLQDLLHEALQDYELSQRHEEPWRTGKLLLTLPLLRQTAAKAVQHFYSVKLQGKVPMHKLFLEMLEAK
Text: (§1) MH100x4 is a luciferase reporter with four copies of a GAL4 […] response element. GAL-L refers to the ligand-binding domain of the indicated receptor fused to the C-terminus of the GAL4 DNA binding domain.

ERRα (GAL-ERRa) = test: MH100x4 luciferase reporter with GAL-ERRa; parameters: Reporter Activity: unit not given here
Text: as §1

ERRγ (GAL-ERRg) = test: MH100x4 luciferase reporter with GAL-ERRg; parameters: Reporter Activity: unit not given here; conditions: for inhibition of the activity of ERRγ: result in words
Text: as §1

MH100x4 = MH100x4 luciferase reporter without receptor
Text: as §1

ERE-TK-luc = ERE-TK-luc reporter without receptor, E2 100 nM
[1] = Table 2, dose 5 (unit not given), None 1.00
[2] = Table 2, dose 5 (unit not given), None 1.44
[3] = Table 2, dose 5 (unit not given), None 8.54
[4] = Table 2, dose 5 (unit not given), None 1.25
[5] = Table 2, dose 5 (unit not given), None 0.49
[6] = Table 3, dose 2.5 (unit not given), None 1
[7] = Table 3, dose 2.5 (unit not given), None 2.38
[8] = Table 3, dose 2.5 (unit not given), None 8.18
[9] = Table 3, dose 2.5 (unit not given), None 2.2
[10] = Table 4, DY39 dose head 0 (1st of 2), None 1
[11] = Table 4, DY39 dose head 0 (2nd of 2), None 1

SMILES: CCC(=C(CC)c1ccc(Oc2cccc(C=O)c2)cc1)c1ccc(O)cc1 [DY19]
- Fold Activation (ERRβ (GAL-L-ERRb); [1]): 0.58
- Reporter Activity (ERRβ (GAL-L-ERRb); [2]): 0.84
- Fold Activation (ERRα (GAL-ERRa); [1]): 0.62
- Reporter Activity (ERRα (GAL-ERRa); [3]): 5.27
- Fold Activation (ERRγ (GAL-ERRg); [1]): 0.82
- Reporter Activity (ERRγ (GAL-ERRg); [4]): 1.02
- Reporter Activity (MH100x4; [5]): 0.37
- Fold Activation (MH100x4; [1]): 0.76

SMILES: C=CCOc1ccc(C(CC)=C(CC)c2ccc(O)c(CC=C)c2)cc1 [DY21]
- Fold Activation (ERRβ (GAL-L-ERRb); [1]): 0.45
- Reporter Activity (ERRβ (GAL-L-ERRb); [2]): 0.65
- Fold Activation (ERRα (GAL-ERRa); [1]): 0.51
- Reporter Activity (ERRα (GAL-ERRa); [3]): 4.34
- Fold Activation (ERRγ (GAL-ERRg); [1]): 0.57
- Reporter Activity (ERRγ (GAL-ERRg); [4]): 0.71
- Reporter Activity (MH100x4; [5]): 0.31
- Fold Activation (MH100x4; [1]): 0.63

SMILES: CC/C(=C(\c1ccc(O)cc1)c1ccc(OCCN(C)C)cc1)c1ccccc1 [4-OH Tamoxifen, (Z)-4-hydroxytamoxifen, reference compound]
- Reporter Activity (ERE-TK-luc): 1.2 and 0.98 and 1.58 and 1.48 and 1.61 and 1.34

SMILES: C[C@]12CC[C@@H]3c4ccc(O)cc4CC[C@H]3[C@@H]1CC[C@@H]2O [E2, estradiol, reference compound]
- Reporter Activity (ERE-TK-luc): 1.13
- Reporter Activity (ERE-TK-luc; Table 6, E2 100 nM alone (no dose head), None 1.44): 1.2

SMILES: CC(C)/C(=C(\c1ccc(O)cc1)c1ccc(OCN(C)C)cc1)c1ccccc1 [DY35, (Z)-4-[1-(4-Dimethylaminomethoxy-phenyl)-3-methyl-2-phenyl-but-1-enyl]-phenol]
- Fold Activation (ERRβ (GAL-L-ERRb); [6]): 0.14
- Reporter Activity (ERRβ (GAL-L-ERRb); [7]): 0.34
- inhibition of the activity of ERRβ (ERRβ (GAL-L-ERRb)): inhibit the activity
- Fold Activation (ERRα (GAL-ERRa); [6]): 0.78
- Reporter Activity (ERRα (GAL-ERRa); [8]): 6.38
- Fold Activation (ERRγ (GAL-ERRg); [6]): 0.15
- Reporter Activity (ERRγ (GAL-ERRg); [9]): 0.34
- inhibition of the activity of ERRγ (ERRγ (GAL-ERRg)): inhibit the activity

SMILES: CCC(=C(c1ccc(OC2CCCCO2)cc1)c1ccc(OC2CCCCO2)cc1)c1ccccc1 (centres unmarked) [DY26]
- Fold Activation (ERRβ (GAL-L-ERRb); [6]): 1.01
- Reporter Activity (ERRβ (GAL-L-ERRb); [7]): 2.4
- Fold Activation (ERRα (GAL-ERRa); [6]): 1.15
- Reporter Activity (ERRα (GAL-ERRa); [8]): 9.38
- Fold Activation (ERRγ (GAL-ERRg); [6]): 0.99
- Reporter Activity (ERRγ (GAL-ERRg); [9]): 2.17

SMILES: CC(C)CC(=C(c1ccc(O)cc1)c1ccc(OCCN(C)C)cc1)c1ccccc1 (mixture of isomers) [DY39]
- Fold Activation (ERRβ (GAL-L-ERRb); [10]): 1.25
- Reporter Activity (ERRβ (GAL-L-ERRb); Table 4, DY39 dose head 0 (1st of 2), None 7.21): 9.02
- Fold Activation (ERRβ (GAL-L-ERRb); [11]): 1.04
- Reporter Activity (ERRβ (GAL-L-ERRb); Table 4, DY39 dose head 0 (2nd of 2), None 7.21): 7.53
- Fold Activation (ERRβ (GAL-L-ERRb); Table 4, dose 0.1 (unit not given), None 1/1.2): 1.2
- Reporter Activity (ERRβ (GAL-L-ERRb); Table 4, dose 0.1 (unit not given), None 7.21/8.67): 8.63
- Fold Activation (ERRβ (GAL-L-ERRb); Table 4, dose 0.3 (unit not given), None 1/1.2): 0.95
- Reporter Activity (ERRβ (GAL-L-ERRb); Table 4, dose 0.3 (unit not given), None 7.21/8.67): 6.84
- Fold Activation (ERRβ (GAL-L-ERRb); Table 4, dose 1 (unit not given), None 1/1.2): 0.4
- Reporter Activity (ERRβ (GAL-L-ERRb); Table 4, dose 1 (unit not given), None 7.21/8.67): 2.9
- Fold Activation (ERRβ (GAL-L-ERRb); Table 4, dose 3 (unit not given), None 1/1.2): 0.28
- Reporter Activity (ERRβ (GAL-L-ERRb); Table 4, dose 3 (unit not given), None 7.21/8.67): 1.99
- inhibition of the activity of ERRβ (ERRβ (GAL-L-ERRb)): inhibit the activity
- Fold Activation (ERRα (GAL-ERRa); [10]): 1.09
- Reporter Activity (ERRα (GAL-ERRa); Table 4, DY39 dose head 0 (1st of 2), None 27.7): 30.2
- Fold Activation (ERRα (GAL-ERRa); [11]): 0.95
- Reporter Activity (ERRα (GAL-ERRa); Table 4, DY39 dose head 0 (2nd of 2), None 27.7): 26.4
- Fold Activation (ERRα (GAL-ERRa); Table 4, dose 0.1 (unit not given), None 1/1.23): 1.08
- Reporter Activity (ERRα (GAL-ERRa); Table 4, dose 0.1 (unit not given), None 27.7/34.05): 30
- Fold Activation (ERRα (GAL-ERRa); Table 4, dose 0.3 (unit not given), None 1/1.23): 1.09
- Reporter Activity (ERRα (GAL-ERRa); Table 4, dose 0.3 (unit not given), None 27.7/34.05): 30.1
- Fold Activation (ERRα (GAL-ERRa); Table 4, dose 1 (unit not given), None 1/1.23): 1.2
- Reporter Activity (ERRα (GAL-ERRa); Table 4, dose 1 (unit not given), None 27.7/34.05): 33
- Fold Activation (ERRα (GAL-ERRa); Table 4, dose 3 (unit not given), None 1/1.23): 1.31
- Reporter Activity (ERRα (GAL-ERRa); Table 4, dose 3 (unit not given), None 27.7/34.05): 36.2
- Fold Activation (ERRγ (GAL-ERRg); [10]): 0.94
- Reporter Activity (ERRγ (GAL-ERRg); Table 4, DY39 dose head 0 (1st of 2), None 5.49): 5.14
- Fold Activation (ERRγ (GAL-ERRg); [11]): 0.96
- Reporter Activity (ERRγ (GAL-ERRg); Table 4, DY39 dose head 0 (2nd of 2), None 5.49): 5.25
- Fold Activation (ERRγ (GAL-ERRg); Table 4, dose 0.1 (unit not given), None 1/1.01): 0.94
- Reporter Activity (ERRγ (GAL-ERRg); Table 4, dose 0.1 (unit not given), None 5.49/5.56): 5.18
- Fold Activation (ERRγ (GAL-ERRg); Table 4, dose 0.3 (unit not given), None 1/1.01): 0.91
- Reporter Activity (ERRγ (GAL-ERRg); Table 4, dose 0.3 (unit not given), None 5.49/5.56): 4.97
- Fold Activation (ERRγ (GAL-ERRg); Table 4, dose 1 (unit not given), None 1/1.01): 0.5
- Reporter Activity (ERRγ (GAL-ERRg); Table 4, dose 1 (unit not given), None 5.49/5.56): 2.7
- Fold Activation (ERRγ (GAL-ERRg); Table 4, dose 3 (unit not given), None 1/1.01): 0.3
- Reporter Activity (ERRγ (GAL-ERRg); Table 4, dose 3 (unit not given), None 5.49/5.56): 1.67
- inhibition of the activity of ERRγ (ERRγ (GAL-ERRg)): inhibit the activity
- Fold Activation (MH100x4; [10]): 1.08
- Reporter Activity (MH100x4; Table 4, DY39 dose head 0 (1st of 2), None 1.14): 1.23
- Fold Activation (MH100x4; [11]): 0.89
- Reporter Activity (MH100x4; Table 4, DY39 dose head 0 (2nd of 2), None 1.14): 1.02
- Fold Activation (MH100x4; Table 4, dose 0.1 (unit not given), None 1/1.03): 0.96
- Reporter Activity (MH100x4; Table 4, dose 0.1 (unit not given), None 1.14/1.17): 1.1
- Fold Activation (MH100x4; Table 4, dose 0.3 (unit not given), None 1/1.03): 0.96
- Reporter Activity (MH100x4; Table 4, dose 0.3 (unit not given), None 1.14/1.17): 1.09
- Fold Activation (MH100x4; Table 4, dose 1 (unit not given), None 1/1.03): 0.8
- Reporter Activity (MH100x4; Table 4, dose 1 (unit not given), None 1.14/1.17): 0.9
- Fold Activation (MH100x4; Table 4, dose 3 (unit not given), None 1/1.03): 0.73
- Reporter Activity (MH100x4; Table 4, dose 3 (unit not given), None 1.14/1.17): 0.83

SMILES: CCCCCCCCCCCCOc1ccc(/C(CC)=C(\CC)c2ccc(O)cc2)cc1 [DY14]
- Fold Activation (ERRβ (GAL-L-ERRb); [1]): 0.96
- Reporter Activity (ERRβ (GAL-L-ERRb); [2]): 1.38
- Fold Activation (ERRα (GAL-ERRa); [1]): 1.01
- Reporter Activity (ERRα (GAL-ERRa); [3]): 8.63
- Fold Activation (ERRγ (GAL-ERRg); [1]): 1.10
- Reporter Activity (ERRγ (GAL-ERRg); [4]): 1.38
